Results from article PMC3269340, “Pharmacokinetics of memantine in rats and mice” (PLoS Currents, 2012).
pIC50: −log10 of the molar value.

Experiments:
[1] = biological target: T1, human PEPT1 (Homo sapiens, UniProt P46059); experiment: Indirect uptake transporter assay, PEPT1; type: in vitro ADME
T1 sequence (P46059 1-708): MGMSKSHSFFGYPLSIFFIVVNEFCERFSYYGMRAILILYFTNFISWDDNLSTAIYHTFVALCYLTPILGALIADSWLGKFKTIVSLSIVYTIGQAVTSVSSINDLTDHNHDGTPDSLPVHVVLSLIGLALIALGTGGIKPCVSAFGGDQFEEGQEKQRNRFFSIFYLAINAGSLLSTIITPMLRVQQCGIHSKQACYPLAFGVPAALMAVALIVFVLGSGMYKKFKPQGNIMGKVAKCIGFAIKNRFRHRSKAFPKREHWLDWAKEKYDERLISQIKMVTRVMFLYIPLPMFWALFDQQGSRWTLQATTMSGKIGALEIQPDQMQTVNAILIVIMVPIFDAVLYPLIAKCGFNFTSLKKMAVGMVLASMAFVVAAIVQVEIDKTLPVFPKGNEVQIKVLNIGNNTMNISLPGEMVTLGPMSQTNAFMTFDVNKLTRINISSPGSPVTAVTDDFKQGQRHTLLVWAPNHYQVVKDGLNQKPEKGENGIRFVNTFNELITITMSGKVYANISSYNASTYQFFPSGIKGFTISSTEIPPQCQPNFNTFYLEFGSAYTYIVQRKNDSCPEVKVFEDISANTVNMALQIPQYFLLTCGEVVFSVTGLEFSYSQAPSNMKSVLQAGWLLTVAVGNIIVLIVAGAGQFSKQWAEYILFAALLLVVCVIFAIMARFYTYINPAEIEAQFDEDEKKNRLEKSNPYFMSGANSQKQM
From the text: To determine whether memantine is an inhibitor of the human OATP2B1 (OATP-B), OCT1, OCT2, OAT3, PEPT1, PEPT2 uptake transporters. The standard uptake transporter assay is an indirect, inhibitory-type screening assay, performed with cold test article, which in this case was memantine. It provides information on any interaction (substrate or inhibitor) between selected uptake transporters and memantine that would affect the transport of the reporter compound. […] A radiolabeled reporter substrate is transported into the cells transfected with the selected human uptake transporter, and the inhibitory effect of memantine on the transport of this reporter substrate is measured. Values are presented on a relative scale; 100% defined as transport in the presence of the solvent and without memantine (no inhibition), and 0% defined as transport detected without transporter activity. IC50 is defined as the concentration required to inhibit the transport of the reporter substrate by 50%.
The uptake transporter assay was carried out under the conditions described in the table below, with either CHO cells or MDCKII cells stably expressing the respective uptake transporter.
Duplicate incubations of memantine (0 or DMSO control, 0.41, 1.2, 3.7, 11, 33, 100 and 300 µM) were conducted per concentration on transfected and in parental cells. A reference inhibitor (positive control, duplicate) was incubated in transfected cells.
CHO cells were cultured in a 1:1 mixture of Dubelcco’s Modified Eagle’s Medium (DMEM, Lonza, Allendale, NJ) and Ham's F-12 (F-12, Lonza, Allendale, NJ) and MDCKII cells in DMEM at 37°C in an atmosphere of 95:5 air:CO2. […]
After the experiment cells were rinsed with 2 x 100µl of Krebs-Henseleit buffer and lysed with 50 µl of 0.1M NaOH. ^3H-estrone-3-sulfate, ^14C-TEA, ^14C-metformin and ^3H-Gly-Sar transport was determined by total radioactivity by transferring an aliquot (35µl) from each well to a vial containing liquid scintillant for analysis.

[2] = biological target: T2, human OCT1 (Homo sapiens, UniProt O15245); experiment: Direct uptake transporter assay, OCT1; type: in vitro ADME; conditions: for Accumulation in transporter transfected cells: OCT1-transfected cells; for Accumulation in parental cells: parental CHO cells (OCT1 line)
T2 construct: expressed in transfected cells; host or cells: CHO cells
T2 sequence (O15245 1-554): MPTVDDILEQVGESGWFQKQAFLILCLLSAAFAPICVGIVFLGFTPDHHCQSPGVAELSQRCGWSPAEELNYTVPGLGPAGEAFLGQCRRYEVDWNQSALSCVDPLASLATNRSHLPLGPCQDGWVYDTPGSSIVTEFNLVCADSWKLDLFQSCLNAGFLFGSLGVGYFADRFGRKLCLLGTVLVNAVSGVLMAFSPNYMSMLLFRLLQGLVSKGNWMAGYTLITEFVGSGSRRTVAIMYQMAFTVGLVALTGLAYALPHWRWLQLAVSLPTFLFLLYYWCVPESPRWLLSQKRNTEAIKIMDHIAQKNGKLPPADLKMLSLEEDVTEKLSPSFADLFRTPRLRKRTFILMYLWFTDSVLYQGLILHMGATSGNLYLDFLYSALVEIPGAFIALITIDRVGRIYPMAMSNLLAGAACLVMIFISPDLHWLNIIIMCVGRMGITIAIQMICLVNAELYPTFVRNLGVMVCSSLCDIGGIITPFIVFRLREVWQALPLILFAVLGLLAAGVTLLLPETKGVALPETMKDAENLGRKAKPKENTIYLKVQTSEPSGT
Method: To determine whether memantine is a substrate of the human OATP2B1 (OATP-B), OCT1, OCT2, OAT3, PEPT1, PEPT2 uptake transporters.
The potential for memantine to be a substrate of an uptake transporter was determined directly by comparing the uptake of memantine into cells expressing the selected uptake transporter with its uptake into control cells. Memantine was added to transporter-expressing and control cells at two concentrations (PEPT1 and PEPT2 100 and 300 µM, OCT1 and OCT2 50 and 100 µM, OATP2B1 100 and 300 µM), and incubated with cells for 2 and 20 min at 37±1°C (75 µL final incubation volume). […] Incubations were carried out as described in the indirect uptake transporter assays. The concentration of memantine was determined by LC-MS/MS.

CC12CC3CC(C)(C1)CC(N)(C3)C2 [memantine]
Maximal Inhibition ([1]; PEPT1, up to 300 µM): ~62% | pIC50 ([1]; PEPT1-mediated glycylsarcosine transport): 3.55 | pIC50 ([1]; PEPT1, probe printed in Table 5: E3S (1 μM), methods and text: Gly-Sar): 3.55 | active transport by OCT1 [2]: not actively transported | Highest Fold Activation ([2]; OCT1): Not observed | Accumulation in transporter transfected cells ([2]; 2 min, 50 µM): 3818 pmol/mg | Accumulation in transporter transfected cells ([2]; 2 min, 100 µM): 5878 pmol/mg | Accumulation in transporter transfected cells ([2]; 20 min, 50 µM): 5540 pmol/mg | Accumulation in transporter transfected cells ([2]; 20 min, 100 µM): 9190 pmol/mg | Accumulation in parental cells ([2]; 2 min, 50 µM): 3894 pmol/mg | Accumulation in parental cells ([2]; 2 min, 100 µM): 6337 pmol/mg | Accumulation in parental cells ([2]; 20 min, 50 µM): 5672 pmol/mg | Accumulation in parental cells ([2]; 20 min, 100 µM): 9576 pmol/mg
